Assay results from US9611289B2, “Farnesoid X receptor modulators” (Intercept Pharmaceuticals, Inc., priority 2013, dated 2017).
In brackets after ≈: the same amount, converted by molar mass.

Assays:
CAR = CAR (Homo sapiens, UniProt Q14994); assay: AlphaScreen nuclear receptor activation; type: biochemical
CYP2D6 = CYP2D6 (Homo sapiens, UniProt P10635); assay: biochemical
hERG potassium channel = hERG potassium channel (Homo sapiens, UniProt Q12809); assay: PREDICTOR hERG Fluorescence Polarization assay; settings: CHO-hERG membrane preparations
[1] = 1-octanol-water partition coefficient (LogPA-); settings: ionized species
PR = PR (Homo sapiens, UniProt P06401); assay: AlphaScreen nuclear receptor activation; type: biochemical
HepG2 cells = assay: cells; settings: Homo sapiens, HepG2, read-out: Membrane integrity EC50 (μM) (LDH measure)
physchem = settings: water
PXR = biological target: T1, PXR (Homo sapiens, UniProt O75469); assay: AlphaScreen nuclear receptor activation; type: biochemical
T1 sequence (O75469 1-434): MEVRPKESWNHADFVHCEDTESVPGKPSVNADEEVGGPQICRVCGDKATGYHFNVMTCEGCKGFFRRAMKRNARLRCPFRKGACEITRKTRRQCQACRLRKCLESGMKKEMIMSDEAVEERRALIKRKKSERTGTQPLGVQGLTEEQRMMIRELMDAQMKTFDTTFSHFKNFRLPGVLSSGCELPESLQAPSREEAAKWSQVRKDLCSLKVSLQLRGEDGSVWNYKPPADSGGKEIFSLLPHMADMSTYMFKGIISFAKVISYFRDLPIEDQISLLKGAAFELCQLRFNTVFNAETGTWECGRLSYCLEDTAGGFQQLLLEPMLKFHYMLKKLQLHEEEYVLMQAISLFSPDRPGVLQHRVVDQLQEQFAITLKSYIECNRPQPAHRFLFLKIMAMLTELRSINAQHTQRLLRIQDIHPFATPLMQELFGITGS

CYP3A4 [2] = biological target: T2, CYP3A4 (Homo sapiens, UniProt P08684); assay: CYP450 inhibition, recombinant baculosomes, fluorescent signal; settings: read-out: CYP3A4 (Green Substrate) IC50
PPARγ = PPARγ (Homo sapiens, UniProt P37231); assay: AlphaScreen nuclear receptor activation; type: biochemical
TR = assay: AlphaScreen nuclear receptor activation; type: biochemical
FXR target genes = assay: Quantitative RT-PCR of FXR target genes in HepG2 cells; type: cell-based, human; settings: 1 μM, overnight
Surface tension at CMC = type: physicochemical; settings: […] NaCl water solution
RARα = RARα (Homo sapiens, UniProt P10276); assay: AlphaScreen nuclear receptor activation; type: biochemical
LXRβ = LXRβ (Homo sapiens, UniProt P55055); assay: AlphaScreen nuclear receptor activation; type: biochemical
PPARδ = PPARδ (Homo sapiens, UniProt Q03181); assay: AlphaScreen nuclear receptor activation; type: biochemical
CYP2E1 = CYP2E1 (Homo sapiens, UniProt P05181); assay: biochemical
CYP2C9 = CYP2C9 (Homo sapiens, UniProt P11712); assay: biochemical
RXR = assay: AlphaScreen nuclear receptor activation; type: biochemical
CYP3A4 [3] = biological target: T2, CYP3A4; assay: biochemical
[4] = Critical micellar concentration; type: physicochemical; settings: […] NaCl water solution
CYP2C19 = CYP2C19 (Homo sapiens, UniProt P33261); assay: biochemical
VDR = VDR (Homo sapiens, UniProt P11473); assay: AlphaScreen nuclear receptor activation; type: biochemical
GR = GR (Homo sapiens, UniProt P04150); assay: AlphaScreen nuclear receptor activation; type: biochemical
CYP1A2 = biological target: T3, CYP1A2 (Homo sapiens, UniProt P05177); assay: biochemical
T3 sequence (P05177 1-516): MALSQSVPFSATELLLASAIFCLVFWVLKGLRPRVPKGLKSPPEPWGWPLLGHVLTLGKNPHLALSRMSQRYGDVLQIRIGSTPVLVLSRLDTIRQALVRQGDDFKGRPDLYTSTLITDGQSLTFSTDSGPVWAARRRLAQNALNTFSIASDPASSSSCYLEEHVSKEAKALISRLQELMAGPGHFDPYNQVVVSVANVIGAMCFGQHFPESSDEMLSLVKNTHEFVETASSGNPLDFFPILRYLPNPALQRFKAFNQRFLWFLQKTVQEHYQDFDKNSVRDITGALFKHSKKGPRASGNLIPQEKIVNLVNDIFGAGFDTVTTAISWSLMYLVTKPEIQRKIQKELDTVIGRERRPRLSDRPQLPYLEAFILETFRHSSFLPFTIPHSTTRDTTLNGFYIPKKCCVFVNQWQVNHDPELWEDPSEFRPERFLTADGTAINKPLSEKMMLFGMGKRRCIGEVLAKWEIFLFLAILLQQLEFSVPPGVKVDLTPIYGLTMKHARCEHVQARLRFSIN

PPARα = PPARα (Homo sapiens, UniProt Q07869); assay: AlphaScreen nuclear receptor activation; type: biochemical

In the case of `CC[C@H]1[C@@H](O)[C@@H]2[C@H](CC[C@]3(C)[C@@H]([C@H](C)CCC(=O)O)CC[C@@H]23)[C@@]2(C)CC[C@@H](O)C[C@@H]12` [Compound A, 6α-ethyl-3α,7α-dihydroxy-5β-cholan-24-oic acid], the “CAR Activation EC50 (μM)” value (CAR) is reported as “No activity”, the IC50 (CYP2D6) is reported as > 10 µM and the “block or inhibition of the hERG potassium channel” value (hERG potassium channel) is reported as “does not block or inhibit”. For the same compound, the “LogPA−(d) 1-octanol-water partition coefficient” value [1] was 2.5, the “PR Activation EC50 (μM)” value (PR) was “No activity” and the EC50 (HepG2 cells) was 190 ± 30 µM. The solubility (physchem) was 9 µM (≈ 3.79 µg/mL), the “ER Activation EC50 (μM)” value (ER) was “No activity” and the “PXR Activation EC50 (μM)” value (PXR) was “No activity”. The IC50 (CYP3A4 [2]) was > 10 µM, the “PPARγ Activation EC50 (μM)” value (PPARγ) was “No activity” and the “TR Activation EC50 (μM)” value (TR) was “No activity”. For the same compound, the APOCII gene expression (FXR target genes) was “up”, the BSEP gene expression (FXR target genes) was “up” and the CYP7α1 gene expression (FXR target genes) was “down”. The FGF-19 gene expression (FXR target genes) was “up”, the MRP2 gene expression (FXR target genes) was “up” and the OSTα gene expression (FXR target genes) was “up”. The OSTβ gene expression (FXR target genes) was “up”, the PEPCK gene expression (FXR target genes) was “up” and the PLTP gene expression (FXR target genes) was “up”. For the same compound, the PPARγ gene expression (FXR target genes) was “up”, the SHP gene expression (FXR target genes) was “up” and the SREBP-1C gene expression (FXR target genes) was “down”. The UGT2B4 gene expression (FXR target genes) was “up”, the “STCMC(c) (Dyne/cm) Surface Tension at CMC” value (Surface tension at CMC) was 43.2-48.8 Dyne/cm and the “RARα Activation EC50 (μM)” value (RARα) was “No activity”. The “LXRβ Activation EC50 (μM)” value (LXRβ) was “No activity”, the “PPARδ Activation EC50 (μM)” value (PPARδ) was “No activity” and the IC50 (CYP2E1) was > 10 µM. For the same compound, the IC50 (CYP2C9) was > 10 µM, the “RXR Activation EC50 (μM)” value (RXR) was “No activity” and the IC50 (CYP3A4 [3]) was > 10 µM. For the same compound, the “CMC(b) (mM) Critical Micellar Concentration” value [4] was 2.9 mM, the IC50 (CYP2C19) was > 10 µM and the “VDR Activation EC50 (μM)” value (VDR) was “No activity”. For the same compound, the “GR Activation EC50 (μM)” value (GR) was “No activity”, the IC50 (CYP1A2) was > 10 µM and the “PPARα Activation EC50 (μM)” value (PPARα) was “No activity”.
